Source: ChEMBL document CHEMBL5108051, “Improving the Antimicrobial Performance of Amphiphilic Cationic Antimicrobial Peptides Using Glutamic Acid Full-Scan and Positive Charge Compensation Strategies” (J Med Chem, 2022)
Activity calls are given as the source filed them. The rule behind the calls is not given here. Bridge positions count the residues as written; N and C are the ends. Square brackets hold non-standard residues; d marks the D form. Peptide text beside a SMILES is read from it. * marks the point of attachment. X1 = CC[C@H](C)CCCCC(=O)*; Dab = NCC[C@H](N)C(=O)O

Key:
Staphylococcus aureus [1] = assay: Antimicrobial activity against Staphylococcus aureus ATCC 25923 assessed as fold increase in MIC in presence of NaCl; format: functional
Escherichia coli [2] = assay: Antibacterial activity against Escherichia coli ATCC 25922 assessed as fractional inhibitory concentration index in presence of polymyxin B by checkerboard assay; format: functional
Escherichia coli [3] = assay: Antibacterial activity against rifampin resistant Escherichia coli ATCC 25922 assessed as fractional inhibitory concentration index in presence of polymyxin B by checkerboard assay; format: functional
Cell membrane [4] = assay: Induction of cell membrane disruption in Staphylococcus aureus ATCC 25923 assessed as cell morphological damage measured after 30 mins by […] electron microscope analysis; format: subcellular
Staphylococcus aureus [5] = assay: Antibacterial activity against gentamicin resistant Staphylococcus aureus ATCC 25923 assessed as fractional inhibitory concentration index in presence of polymyxin B by checkerboard assay; format: functional
Escherichia coli [6] = assay: Antibacterial activity against rifampin resistant Escherichia coli ATCC 25922 assessed as fractional inhibitory concentration index in presence of kanamycin by checkerboard assay; format: functional
Staphylococcus aureus [7] = assay: Antibacterial activity against rifampin resistant Staphylococcus aureus ATCC 25923 assessed as fractional inhibitory concentration index in presence of gentamicin by checkerboard assay; format: functional
[8] = Acute toxicity in BALB/c mouse assessed as abdominal twitching at 40 to 80 mg/kg, ip administered as single dose measured for 7 days; format: organism-based; conditions: in vivo, 168 h, dose 40-80 mg/kg, time 7 day
[9] = Acute toxicity in BALB/c mouse assessed as decrease in motility at 40 to 80 mg/kg, ip administered as single dose measured for 7 days; format: organism-based; conditions: in vivo, 168 h, dose 40-80 mg/kg, time 7 day
[10] = Cytotoxicity against human Glomerular mesenchymal cell assessed as reduction in cell viability at 0 to 128 uM incubated for 1 hr by Resazurin cell viability kit; format: toxicity, cell-based; conditions: glomerular mesenchymal cells, dose 0-128 µM
Escherichia coli [11] = assay: Antibiofilm activity against Escherichia coli ATCC 25922 assessed as inhibition of biofilm formation at 0.5 times MIC measured after 24 hrs by crystal violet staining based assay; format: functional, organism-based
Staphylococcus aureus [12] = assay: Antibacterial activity against rifampin resistant Staphylococcus aureus ATCC 25923 assessed as fractional inhibitory concentration index in presence of polymyxin B by checkerboard assay; format: functional
Staphylococcus aureus [13] = assay: Antimicrobial activity against Staphylococcus aureus ATCC 25923 assessed as fold increase in MIC in presence of MgCl2; format: functional
Staphylococcus aureus [14] = assay: Antibacterial activity against gentamicin resistant Staphylococcus aureus ATCC 25923 assessed as fractional inhibitory concentration index in presence of vancomycin by checkerboard assay; format: functional
Escherichia coli [15] = assay: Antibacterial activity against gentamicin resistant Escherichia coli ATCC 25922 assessed as fractional inhibitory concentration index in presence of polymyxin B by checkerboard assay; format: functional
Cell membrane [16] = assay: Induction of cytoplasmic membrane depolarization in Escherichia coli ATCC 25922 assessed as increase in fluorescence intensity measured within 1 min by DiSC3-5 dye based fluorescence method; format: subcellular
[17] = Acute toxicity in BALB/c mouse assessed as pathological changes in liver at 20 to 80 mg/kg, ip administered as single dose measured for 7 days by H and E staining method; format: organism-based; conditions: in vivo, 168 h, dose 20-80 mg/kg, time 7 day
Escherichia coli [18] = assay: Antibiofilm activity against Escherichia coli ATCC 25922 assessed as inhibition of biofilm formation at 1 times MIC measured after 24 hrs by crystal violet staining based assay; format: functional, organism-based
[19] = Acute toxicity in BALB/c mouse assessed as mortality at 40 mg/kg, ip administered as single dose measured for 7 days; format: organism-based; conditions: in vivo, time 7 day, read-out: Activity
Escherichia coli [20] = assay: Antibacterial activity against rifampin resistant Escherichia coli ATCC 25922 assessed as fractional inhibitory concentration index in presence of vancomycin by checkerboard assay; format: functional
Cell membrane [21] = assay: Induction of outer membrane permeabilization to NPN in Escherichia coli ATCC 25922 cells assessed as increase in fluorescence intensity by NPN fluorescent dye based microplate reader assay; format: subcellular
Erythrocyte = assay: Hemolytic activity against mouse RBC measured after 1 hrs; format: toxicity, cell-based
[22] = Acute toxicity in BALB/c mouse assessed as rough hairs at 40 to 80 mg/kg, ip administered as single dose measured for 7 days; format: organism-based; conditions: in vivo, 168 h, dose 40-80 mg/kg, time 7 day
Staphylococcus aureus [23] = assay: Antibiofilm activity against Staphylococcus aureus ATCC 25923 assessed as inhibition of biofilm formation measured at 0.5 to 4 times MIC after 24 hrs by crystal violet staining based assay; format: functional, organism-based; conditions: DDE = dose-dependent effect
Cell membrane [24] = assay: Induction of cytoplasmic membrane depolarization in Staphylococcus aureus ATCC 25923 assessed as increase in fluorescence intensity at 1 to 4 times MIC measured within 1 min by DiSC3-5 dye based fluorescence method; format: subcellular; conditions: DDE = dose-dependent effect
Escherichia coli [25] = assay: Antibacterial activity against Escherichia coli ATCC 25922 assessed as fractional inhibitory concentration index in presence of gentamicin by checkerboard assay; format: functional
Staphylococcus aureus [26] = assay: Antibacterial activity against Staphylococcus aureus ATCC 25923 assessed as fractional inhibitory concentration index in presence of rifampin by checkerboard assay; format: functional
Staphylococcus aureus [27] = assay: Antibacterial activity against Staphylococcus aureus ATCC 25923 assessed as fractional inhibitory concentration index in presence of polymyxin B by checkerboard assay; format: functional
[28] = Acute toxicity in BALB/c mouse assessed as pathological changes in kidney at 20 to 80 mg/kg, ip administered as single dose measured for 7 days by H and E staining method; format: organism-based; conditions: in vivo, 168 h, dose 20-80 mg/kg, time 7 day
Escherichia coli [29] = assay: Antimicrobial activity against Escherichia coli ATCC 25922 in presence of NaCl; format: functional, organism-based
Staphylococcus aureus [30] = assay: In vivo antimicrobial activity against Staphylococcus aureus ATCC 25923 infected in BALB/C mouse pulmonary infection model administered ip; format: functional, organism-based; conditions: dose 5-10 mg/kg, DDE = dose-dependent effect
[31] = Stability of compound in serum measured after 1 to 6 hrs by RP-HPLC analysis; format: ADME, cell-free; conditions: time 1-6 hrs
[32] = Acute toxicity in BALB/c mouse spleen assessed as edema at 20 to 80 mg/kg, ip administered as single dose measured for 7 days by H and E staining method; format: organism-based; conditions: in vivo, 168 h, dose 20-80 mg/kg, time 7 day
Escherichia coli [33] = assay: Antimicrobial activity against Escherichia coli ATCC 25922 in presence of KCl; format: functional, organism-based
Escherichia coli [34] = assay: Antibacterial activity against Escherichia coli ATCC 25922 assessed as inhibition of rifampin resistance development measured after 15 passages in presence of rifampin by resistance development assay; format: functional, organism-based
Staphylococcus aureus [35] = assay: Antibacterial activity against Staphylococcus aureus ATCC 25923 infected in BALB/C mouse pulmonary infection model assessed as increase in alveolar aggregation in lung at 10 mg/kg, ip after 24 hrs by H and E staining method; format: functional, organism-based
Escherichia coli [36] = assay: Bactericidal activity against Escherichia coli ATCC 25922 at 1 times MIC measured after 1 hr by time-killing kinetics assay; format: functional
Escherichia coli [37] = assay: Antimicrobial activity against Escherichia coli ATCC 25922 assessed as reduction in survival rate in presence of 0.02 to 2000 microg/ml of trypsin measured after 6 hrs; format: functional, organism-based
[38] = Acute toxicity in BALB/c mouse assessed as mortality at 20 mg/kg, ip administered as single dose measured for 7 days; format: organism-based; conditions: in vivo, 168 h, time 7 day

Row | SMILES | fold change (FC) (Staphylococcus aureus [1]) | fractional inhibitory concentration index (FICI) (Escherichia coli [2]) | fractional inhibitory concentration index (FICI) (Escherichia coli [3]) | Activity (Cell membrane [4]) | fractional inhibitory concentration index (FICI) (Staphylococcus aureus [5]) | fractional inhibitory concentration index (FICI) (Escherichia coli [6]) | fractional inhibitory concentration index (FICI) (Staphylococcus aureus [7]) | Activity [8] | Activity [9] | CC50 at 1 h [10] [µM] | Activity (Escherichia coli [11]) | fractional inhibitory concentration index (FICI) (Staphylococcus aureus [12]) | fold change (FC) (Staphylococcus aureus [13]) | fractional inhibitory concentration index (FICI) (Staphylococcus aureus [14]) | fractional inhibitory concentration index (FICI) (Escherichia coli [15]) | Activity (Cell membrane [16]) | Activity [17] | Activity (Cell membrane [21]) | MHC10 (Erythrocyte) [µM] | fractional inhibitory concentration index (FICI) (Escherichia coli [25]) | also measured
1 | CC[C@H](C)[C@H](NC(=O)[C@@H]1CCCN1C(=O)[C@H](CC(C)C)NC(=O)[C@@H](N)Cc1ccccc1)C(=O)N[C@H](C(=O)N[C@@H](C)C(=O)N[C@@H](CCCCN)C(=O)N[C@@H](CC(C)C)C(=O)N[C@@H](CC(C)C)C(=O)N[C@@H](CO)C(=O)NCC(=O)N[C@@H](CC(C)C)C(=O)N[C@@H](CC(C)C)C(N)=O)C(C)C (H-FLPIVAKLLSGLL-NH2) | 2 | 0.625 | 0.25 | Active | 0.625 | 0.625 | 0.5625 | Toxic | Toxic | 35.9 | Active | 0.5 | 2 | 0.625 | 0.75 | Active | Non-Toxic | Active | 12.53 | 1 | Activity (Escherichia coli [18]): Active; mortality at 168 h [19]: 40%; fractional inhibitory concentration index (FICI) (Escherichia coli [20]): 0.25; Activity [22]: Toxic; Activity (Staphylococcus aureus [23]): Dde; Activity (Cell membrane [24]): Dde; fractional inhibitory concentration index (FICI) (Staphylococcus aureus [26]): 0.75; fractional inhibitory concentration index (FICI) (Staphylococcus aureus [27]): 0.75
2 | CC(C)C[C@H](NC(=O)[C@H](CC(C)C)NC(=O)[C@H](CCC(=O)O)NC(=O)[C@H](CCCCN)NC(=O)[C@H](CC(C)C)NC(=O)[C@H](CC(C)C)NC(=O)[C@H](CCCCN)NC(=O)[C@H](C)NC(=O)[C@@H](NC(=O)[C@H](CCCCN)NC(=O)[C@@H]1CCCN1C(=O)[C@H](CC(C)C)NC(=O)[C@@H](N)Cc1ccccc1)C(C)C)C(N)=O (H-FLPKVAKLLKELL-NH2) |  | 0.375 | 0.25 | Active | 0.75 | 0.75 | 0.5 | Toxic | Toxic | > 128 |  | 0.5 |  |  | 0.75 | Active | Non-Toxic | Active | 202 | 0.5 | Activity [28]: Non-Toxic; Activity (Escherichia coli [29]): Active; Activity (Staphylococcus aureus [30]): Dde; Stability [31]: Stable; Activity [32]: Toxic; Activity (Escherichia coli [33]): Active; Activity (Escherichia coli [34]): Active; mortality at 168 h [19]: 20%; fractional inhibitory concentration index (FICI) (Escherichia coli [20]): 0.825; Activity (Staphylococcus aureus [35]): Active; Activity [22]: Toxic; Activity (Staphylococcus aureus [23]): Dde; Activity (Cell membrane [24]): Dde; fractional inhibitory concentration index (FICI) (Staphylococcus aureus [27]): 0.75
3 | CC[C@H](C)CCCCC(=O)N[C@@H](CCN)C(=O)N[C@H](C(=O)N[C@@H](CCN)C(=O)N[C@H]1CCNC(=O)[C@H]([C@@H](C)O)NC(=O)[C@H](CCN)NC(=O)[C@H](CCN)NC(=O)[C@H](CC(C)C)NC(=O)[C@@H](Cc2ccccc2)NC(=O)[C@H](CCN)NC1=O)[C@@H](C)O (X1-[Dab]T[Dab][Dab][Dab][dF]L[Dab][Dab]T; lactam 4-C) | 4 |  |  |  |  | 0.375 | 0.375 |  |  |  | Active |  | 2 | 1 |  | Active | Non-Toxic | Active | > 256 | 0.375 | Activity (Escherichia coli [29]): Active; Stability [31]: Stable; Activity (Escherichia coli [36]): 100%; Activity (Escherichia coli [33]): Active; Activity (Escherichia coli [37]): Active; Activity (Escherichia coli [18]): Active; Activity [38]: Toxic; fractional inhibitory concentration index (FICI) (Staphylococcus aureus [26]): 2
